The text below walks through data of US4522839A, “3-Substituted 2,4,6-trihalogenated benzamides as sweetening agents” (Schering Aktiengesellschaft, priority 1980, dated 1985).

Where two headings read alike, the source gives them in different places. Residues, ends and D or L forms follow the SMILES beside them.

A short description of data set [1]: General taste evaluation of aqueous solutions in concentration stages 1-8 (blind taste test). Also on record: species or system healthy volunteers. The following applies: average results of 3 taste tests. As to the method:
The following concentrations correspond to the 8 concentration stages tested:
(§1) The taste tests were conducted by three healthy volunteers; the solutions were coded by letter-number combinations and randomized so that the tester could not know which compound he or she tasted. Also the reference solution (5% sucrose) remained part of the randomizing plan initially, for the purpose of general taste characteristics of the compounds.

Data set [2] is described as follows: Degree of sweetening compared with 5% sucrose solution (taste test). The following applies: times the sweetening power of sucrose (sucrose = 1), average of 3 taste tests. Also on record: species or system healthy volunteers. As to the method: as §1
Data set [3] in a line: Identification threshold values (cts) of sweeteners (triangle test) and comparison with sucrose. The following applies: for Identification Threshold Values (cts): tap water, pH 6-7 if necessary with NaOH, 5 persons, triangle test, 1 ml samples; for f suc, mol (cts): compound, sweetening power relative to sucrose, molar. Also on record: species or system persons. As to the method:
These sensory investigations were conducted by 5 persons; all samples were encoded by a person not participating in the test. […] Consecutive samples of 1 ml were consumed. The approximate concentration values determined in a preliminary test were inserted, in the main experiment, in the middle of a dilution series. All solutions of a compound were encoded with two water samples (triangle test). The testers must indicate which of the three samples of decreasing concentration are considered to be sweet. The identification threshold value is set forth to be the lowest concentration range (cts) at which the testers still render a correct judgment.

The subject of the next data set is mice. Particulars: for Number of Dead Animals/Number of Animals Utilized: mice, intraperitoneal.
A further data set in a line: in vivo. Particulars: mouse, ip.
For data set [4] the following is noted: literature (Hager's Manual), b158: also determined by all three testers in a blind taste test, cited from earlier work.

Regarding `NC(=O)c1c(Br)cc(Br)c(CCC(=O)O)c1Br` [A, 3-(3-carbamoyl-2,4,6-tribromophenyl)propionic acid], the “General Taste Evaluation, concentration stage 7” value in data set [1] (0.781 mg/100 ml (1/6400 of 5% sucrose)) was “Sweet”. For the same compound, the “General Taste Evaluation, concentration stage 6” value in data set [1] (1.563 mg/100 ml (1/3200 of 5% sucrose)) was “Sweet”. Besides, in data set [2], the “Degree of Sweetening” value is recorded as 6000-7000. For the same compound, the “Identification Threshold Values (cts)” value in data set [3] is 0.6 to 1.4 µmol/L. Besides, the General compatibility entry in the data set on mice (intraperitoneal injection in mice) is “approximately the same good compatibility as sodium saccharin”. Besides, the “Number of Dead Animals/Number of Animals Utilized” value is on record as 2/10 in the data set with mice (3.0 g/kg BW), 6/10 in the data set with mice (6.0 g/kg BW) and 10/10 in the data set on mice (9.0 g/kg BW). In “in vivo”, the median lethal dose (LD50) (usually the dose at which mortality reaches 50%) was ~6000 mg/kg.

On to `COC(=O)[C@H](Cc1ccccc1)NC(=O)[C@@H](N)CC(=O)O` [Aspartame] (H-Asp-Phe-OMe), for which, in data set [3], the “f suc, mol (cts)” value worked out at 275 and the “Identification Threshold Values (cts)” value lay within 20 to 60 µmol/L.

Consider `O=S(=O)(O)NC1CCCCC1` [Cyclamate], for which the “Degree of Sweetening” value in data set [2] is < 100. For the same compound, in data set [3], the “f suc, mol (cts)” value came out at 5.5 and the “Identification Threshold Values (cts)” value lay in the range of 1000 to 3000 µmol/L. Besides, in data set [4], the “Degree of sweetening known from the literature” value (“Degree of sweetening known” below) is recorded as 30-70. For the same compound, the “Degree of sweetening known” value in data set [4] (listed as Sodium cyclamate) is 70.

With `CCOc1ccc(NC(N)=O)cc1` [Dulcin], in data set [3], the “f suc, mol (cts)” value was determined as 489 and the “Identification Threshold Values (cts)” value fell in the range of 15 to 30 µmol/L.

As for `NC(=O)c1c(I)cc(I)c(CCC(=O)O)c1I` [E, 3-(3-carbamoyl-2,4,6-triiodophenyl)propionic acid], in data set [3], the “Identification Threshold Values (cts)” value was 1.0 to 2.0 µmol/L.

Regarding `NC(=O)c1c(I)cc(I)c(OCC(=O)O)c1I` [F, 3-carbamoyl-2,4,6-triiodophenoxyacetic acid], the “Identification Threshold Values (cts)” value in data set [3] was in the range of 15 to 25 µmol/L.

For `NC(=O)c1c(Cl)cc(Cl)c(CCC(=O)O)c1Cl` [G, 3-(3-carbamoyl-2,4,6-trichlorophenyl)propionic acid], the “Identification Threshold Values (cts)” value in data set [3] lay in the range of 2.5 to 4.0 µmol/L.

As for `O=C1NS(=O)(=O)c2ccccc21.[Na]` [Sodium Saccharin], the “General Taste Evaluation, concentration stage 2” value in data set [1] (25.0 mg/100 ml (1/200 of 5% sucrose)) is recorded as “Sweet”. In data set [1] (50.0 mg/100 ml (1/100 of 5% sucrose)), the “General Taste Evaluation, concentration stage 1” value was “Sweet”. The “Degree of Sweetening” value in data set [2] is on record as 400. Also, in data set [3], the “f suc, mol (cts)” value was 489 and the “Identification Threshold Values (cts)” value lay in the range of 15 to 30 µmol/L. Besides, the “Degree of sweetening known” value in data set [4] is given as 400. Further, the “Number of Dead Animals/Number of Animals Utilized” value in the data set with mice (3.0 g/kg BW) is reported as 0/10. Besides, the “Number of Dead Animals/Number of Animals Utilized” value in the data set on mice (6.0 g/kg BW) is on record as 5/10.

As for `OC[C@H]1O[C@@](CO)(O[C@H]2O[C@H](CO)[C@@H](O)[C@H](O)[C@H]2O)[C@@H](O)[C@@H]1O` [Sucrose], the “Degree of Sweetening” value in data set [2] turned out to be 1. Besides, in data set [3], the “f suc, mol (cts)” value turned out to be 1 and the “Identification Threshold Values (cts)” value was 10000 to 12000 µmol/L.
